Source: patent publication US20120156150A1, “Composition for Improving Skin Condition Comprising Extract from Black Tea as Active Ingredient” (Keimyung University Industry Academic Cooperation Foundation, priority 2010, published 2012)
Marks after values point to notes of the source that are not given here.

How the values were obtained:
[1] = Electron donating ability (DPPH radical scavenging, Blois' method); conditions: 800 μg/mL
Experimental: DPPH radical scavenging effect was measuring according to the Blois' method (1958). […] After adding 1 mL of the test sample in a test tube, 4×10^−4 M DPPH (4 mL) was added. The resulting mixture was shaken vigorously, allowed to stand in warm water of 60° C. for 10 seconds, and absorbance was measured at 525 nm. BHT was used as the positive control group. Then, free radical scavenging activity of each solution was calculated as “% inhibition” according to the following equation: % inhibition=[1−(Asample/Ablank)]×100, wherein Ab1ank is the absorbance of the control group (excluding the test sample) and Asample is the absorbance of the test compound.

[2] = tested on: UVB-induced hyperpigmentation; assay: Melanin index (mexameter), brown guinea pig; type: in vivo; conditions: 2% sample topical
Experimental: Three brown guinea pigs weighing 450-550 g were purchased from Oriental Yeast Co. Ltd. (OYC; Japan). The animals were accustomed to the test environment for 7 days. The animals were housed in individual cages under the environment of 22±1° C. and 50±5% relative humidity with 12-hour alternate dark/light cycles. Feed and water were given ad libitum.
UVB-induced hyperpigmentation was elicited on the back of the brown guinea pig according to the method of Choi et al. (2004). After anesthetizing the guinea pig with ketamine hydrochloride (100 mg/kg BW), 24 separate areas (φ 12 mm) on the skin of the back was exposed to UVB radiation (302-nm sunlamp). The areas were exposed to UVB of 500 mJ/cm^2 for 3 consecutive weeks, once a week. That is, a total of 1,500 mJ/cm^2 of UVB was radiated.
On day 10 after the final UVB radiation, 30 μL (1.06 mg/cm^2/day) of 2% HQ, EGCG, GT, WT or BT was topically applied for 4 weeks to the hyperpigmented areas (9 areas per each) using a micropipette, twice a day, and 4 days a week. Saline was used as control, and propylene glycol:ethanol:water (5:3:2) was used as vehicle control.
Before and after the topical application of the test sample, change in melanin pigmentation was measured 3 times in a non-invasive manner using a mexameter, once a week. The degree of pigmentation was analyzed by averaging the measured values.

[3] = tested on: melanin pigmentation in the epithelium; assay: Fontana-Masson's silver staining, melanin-pigmented area; type: in vivo, brown guinea pig; conditions: week 4; 2% sample
Experimental: In order to observe the morphological change of the skin tissue using an optical microscope, the extracted skin tissue was fixed in a 10% neutral formalin solution for 12 hours and washed with flowing water. After dehydrating in 70, 80, 95 and 100% ethanol followed by washing with xylene, the tissue was embedded in paraffin and 4 μm-thick samples were prepared using a microtome.
Paraffin was removed from the sample using xylene. After staining the sample for 60 minutes in silver nitrate solution at 56° C. according to the Masson's method (1928), followed by washing, color-toning 0.2% gold chloride solution and washing again, the sample was kept in 5% sodium thiosulfate solution for 5 minutes. Subsequently, after washing the sample once again, followed by counterstaining in nuclear fast red solution, dehydration in 95%, 95%, 100% and 100% alcohol and washing with xylene, the sample was put in Canada balsam for microscopic observation. The percentage of the melanin-pigmented area was calculated using an image analysis software.

[4] = tested on: S-100 protein; assay: Immunohistochemical S-100 staining; type: in vivo, brown guinea pig; conditions: week 4; 2% sample
Experimental: (§1) After dehydration, followed by washing with xylene and embedding in paraffin, 4 μm-thick samples were prepared. The sample was adhered on a coating slide and stained using the BenchMark XT automated immunostainer (Ventana Medical Systems, USA) after removing paraffin. […] Following reaction with S-100 and HMB-45 primary antibodies diluted to 1:100, the sample was washed with reaction buffer, reacted with biotin for 20 minutes, and then reacted with streptavidin for 25 minutes. After coloring with diaminobenzidine (DAB) using the Ventana detection kit), the sample was stained for observation using an optical microscope.

[5] = tested on: gp100 protein; assay: Immunohistochemical HMB-45 staining (gp100); type: in vivo, brown guinea pig; conditions: week 4; 2% sample
Experimental: as §1

[6] = molecular target: tyrosinase (Homo sapiens, UniProt P14679); conditions: Briganti et al. 2003; cited from earlier work
[7] = tested on: hyperpigmentation; conditions: Ortonne and Passeron 2005; cited from earlier work
[8] = tested on: UVB-irradiated skin; assay: Skin erythema index, SKH-1 hairless mouse; type: in vivo; conditions: for skin erythema index: RA 0.01%, GT/WT/BT 2%
Experimental: (§2) 7-week-old SKH-1 hairless mice was purchased from Charles River (Japan). The animals were accustomed to the test environment for 1 week. The animals were housed in individual cages under the environment of 22±1° C. and 50±5% relative humidity with 12-hour alternate dark/light cycles. Feed and water were given ad libitum. The animals were grouped into 7 groups as follows, with 7 mice per each:
(§3) The mouse was subjected to UVB radiation (302 nm sunlamp) on the back for […], 3 times a week. The radiation amount was 1 minimal erythemal dose (MED: 60 mJ/cm^2) on the 1st week, 2 MED (120 mJ/cm^2) on the 2nd week, 3 MED (180 mJ/cm^2) on the 3rd week, and 4 MED (240 mJ/cm^2) on the 4th to 12th weeks. The radiation with 4 MED was carried out once a week during the test period.
(§4) After inducing wrinkle formation, 200 μL of saline or the sample was applied for 4 weeks, 5 times a week (2%: 0.26 g/kg BW/day). RA was applied together with polyethylene glycol at a concentration of 0.01% for 4 weeks, 5 times a week, twice a day, with 200 μL per each.
(§5) Skin erythema index, water content and transepidermal water loss (TEWL) were measured in a non-invasive manner using a mexameter, a corneometer and a tewameter, once a week during the test period.

[9] = tested on: UVB-irradiated skin; assay: Skin water content (corneometer), SKH-1 hairless mouse; type: in vivo; conditions: for water content of the skin: RA 0.01%, GT/WT/BT 2%
Experimental: as §2, §3, §4, §5

[10] = tested on: UVB-irradiated skin; assay: Transepidermal water loss (TEWL), SKH-1 hairless mouse; type: in vivo; conditions: for TEWL: RA 0.01%, GT/WT/BT 2%
Experimental: as §2, §3, §4, §5

[11] = tested on: UVB-induced wrinkles; assay: Measurement of wrinkles (skin replica, Visioline); type: in vivo, SKH-1 hairless mouse; conditions: RA 0.01%, GT/WT/BT 2%
Experimental: as §2, §3, §4
Skin replica was prepared from the back skin of the hairless mouse using the Silflo impression material (Flexico, England). The roughness of the skin was assessed using Visioline. Total wrinkle area (mm^2) was calculated.

[12] = tested on: MMP-3; assay: RT-PCR, MMP-3 mRNA in skin tissue; type: in vivo, SKH-1 hairless mouse; conditions: RA 0.01%, GT/WT/BT 2%
Experimental: 50 mg of the sample from the mouse back skin kept at low temperature was homogenized with 1 mL of Trizol. The homogenized sample was incubated at room temperature for 5 minutes after adding 200 μL of chloroform, and centrifuged at 15,000 rpm and 4° C. for 10 minutes. After collecting and transferring the supernatant to a fresh tube and adding 500 μL of isopropyl alcohol, the sample was centrifuged at 4° C. and 15,000 rpm for 15 minutes. The resulting RNA pellet was washed with 1 mL of 70% ethanol and centrifuged at 4° C. and 15,000 rpm for 15 minutes. The RNA pellet finally obtained by removing the supernatant was diluted with diethylpyrocarbonate (DEPC) and quantitated with 1.8<optical density (OD; A260/A280)<2.0 using a white light/UV transilluminator. cDNA was synthesized from total RNA at a concentration of 0.1-1 μg/μL using the Cycle Script RT PreMix (dT20) kit. The cDNA synthesis was performed by 12 cycles of 1 minute at 30° C. and 4 minutes at 50° C. in 205 μL of DEPC, and the sample was heated at 95° C. for 5 minutes. Polymerase chain reaction (PCR) was carried out in 15.2 μL of sterilized water containing 2 μL of template and […] of primer using the Accupower™ PCR PreMix kit. The reaction was carried out for 35 cycles. […] DNA band density was calculated using the Kodak Gel Logic 100 image analysis system.

[13] = Water and feed intake, feed efficiency and body weight; type: in vivo, SKH-1 hairless mouse
Experimental: Water and feed intake of the test animal was measured once a week. Body weight was measured between 09:00 and 10:00 in the morning, once a week during the test period.

[14] = Organ weight (spleen, thymus); type: in vivo, SKH-1 hairless mouse
Experimental: After extracting the skin, a portion of the skin was fixed in 10% neutral-buffered formalin solution for histological analysis and the remainder was kept in a refrigerator (−80° C.) for analysis of MMPs. Thymus and spleen extracts were washed with saline and weighed on an electronic scale after removing water with filer paper.

[15] = Hematological analysis; type: in vivo, SKH-1 hairless mouse; conditions: RA 0.01%, GT/WT/BT 2%
Experimental: Blood sample was added to a blood collection tube containing the anticoagulant K2EDTA and mixed for more than 5 minutes. Then, concentration of erythrocytes, leukocytes, neutrophils, eosinophils, basophils, lymphocytes, monocytes, platelets and hemoglobin and hematocrit were measured using a hematological analyzer.

Chain of tyrosinase (P14679 19-529, species assumed): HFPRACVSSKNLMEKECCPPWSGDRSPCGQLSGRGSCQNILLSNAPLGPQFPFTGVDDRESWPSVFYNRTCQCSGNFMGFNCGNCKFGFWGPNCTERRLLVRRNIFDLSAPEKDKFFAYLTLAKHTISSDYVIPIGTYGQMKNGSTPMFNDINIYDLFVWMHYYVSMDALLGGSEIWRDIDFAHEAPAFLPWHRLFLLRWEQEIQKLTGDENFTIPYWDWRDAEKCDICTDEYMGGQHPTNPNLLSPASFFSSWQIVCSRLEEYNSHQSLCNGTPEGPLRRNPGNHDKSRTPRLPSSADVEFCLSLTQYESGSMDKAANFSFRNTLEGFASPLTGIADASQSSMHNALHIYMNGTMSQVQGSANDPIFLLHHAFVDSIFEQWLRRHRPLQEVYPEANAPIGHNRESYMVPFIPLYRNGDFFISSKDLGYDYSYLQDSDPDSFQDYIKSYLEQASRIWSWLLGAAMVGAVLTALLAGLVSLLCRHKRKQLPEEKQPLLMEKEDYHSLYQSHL

## Oc1ccc(O)cc1 [HQ, Hydroquinone]
[1]
  Electron donating ability: 93%
[2]; week 0
  melanin index: 724.8 ± 22.8^a AU
[2]; week 1
  melanin index: 702.9 ± 24.4^a* AU
[2]; week 2
  melanin index: 673.9 ± 26.1^c AU
[2]; week 3
  melanin index: 636.7 ± 25.8^b AU
[2]; week 4
  melanin index: 583.0 ± 28.0^b AU
  melanin index decreased by, as compared to the group C: 17%
[3]
  % of melanin pigment: 9.5 ± 1.5^bc %
  Melanin pigment area: 1163 ± 268 μm^2
  melanin pigmented area decreased by, as compared to the control group: 53%
[4]
  % of S-100 Protein: 4.3 ± 0.5^ab %
  S-100 Protein area: 511 ± 89 μm^2
  area of S-100 protein expression, decrease by, as compared to the control groups: 69%
[5]
  % of Melanin pigment (Table 5, gp 100 protein): 4.4 ± 0.8^c %
  Melanin pigment (area; Table 5, gp 100 protein): 469 ± 111 μm^2
  area of gp 100 protein expression, decrease by, as compared to the group C: 68%
[6]
  decreases tyrosinase activity up to: up to 90%
[7]
  improves hyperpigmentation in % of cases: 14-70%

## CC1=C(/C=C/C(C)=C/C=C/C(C)=C/C(=O)O)C(C)(C)CCC1 [RA, retinoic acid]
[8]; week 1
  skin erythema index: 314.38 ± 17.33^c AU
[8]; week 2
  skin erythema index: 301.10 ± 16.60^b AU
[8]; week 3
  skin erythema index: 294.43 ± 13.14^b AU
[8]; week 4
  skin erythema index lower as compared to the control group: 32%
  skin erythema index: 282.64 ± 15.50^b AU
[9]; week 1
  water content of the skin: 57.99 ± 7.31^b AU
[9]; week 2
  water content of the skin: 65.70 ± 5.75^c AU
[9]; week 3
  water content of the skin: 71.42 ± 5.82^cd AU
[9]; week 4
  water content higher as compared to the control group: 207%
  water content of the skin: 88.59 ± 4.87^cd AU
[10]; week 1
  TEWL: 24.16 ± 4.49^c** g/m^2/h
[10]; week 2
  TEWL: 18.33 ± 4.85^b** g/m^2/h
[10]; week 3
  TEWL: 18.76 ± 3.66^c g/m^2/h
[10]; week 4
  TEWL lower as compared to the control group: 58%
  TEWL: 16.90 ± 3.59^b g/m^2/h
[11]
  decreased wrinkle area as compared to the control group: 49%
[12]
  expression level of MMP-3 mRNA lower as compared to the control group: 77%
[13]; (Body weight gain/Food intake) × 100
  Food efficiency ratio: −0.94 ± 1.71^a %
[13]; RA 0.01%, GT/WT/BT 2%
  Body weight gain: −0.050 ± 0.09^a g/day
  Food intake: 5.36 ± 1.06^a g/day
  Water intake: 8.57 ± 1.75^b Ml/day
[13]; p <0.05
  water intake as compared to the control group: remarkably higher water intake
[14]; RA 0.01%, GT/WT/BT 2%
  Spleen absolute weight: 0.136 ± 0.015^a g
  Spleen relative weight: 0.475 ± 0.053^a g/100 g body weight
  Thymus absolute weight: 0.019 ± 0.005^ab g
  Thymus relative weight: 0.067 ± 0.01^ab g/100 g body weight
[14]; p <0.05
  organ weight relative to the normal group: significantly lower
[15]
  Basophil: 0.004 ± 0.04^a k/μl
  Eosinophil: 0.050 ± 0.05^a k/μl
  HCT: 43.442 ± 0.87^b %
  Hb: 13.800 ± 0.18^b g/dl
  Lymphocyte: 6.462 ± 0.34^c k/μl
  Monocyte: 0.204 ± 0.06^b k/μl
  Neutrophil: 2.340 ± 0.39^cd k/μl
  Platelet: 517.80 ± 16.44^b k/μl
  RBC: 4.274 ± 0.17^b M/μl
  WBC: 9.114 ± 0.55^b k/μl
